Experiments:
Format in all cases: cell-based
IL-1β [1] = assay: IL-1β secretion by ELISA in mouse splenocytes induced with LPS, TGFβ and IL-23; conditions: LPS 2 μg/mL, TGFβ 20 ng/ml, IL-23 20 ng/mL, 24 hours
Excerpt: (§1) Inflammation was induced by treating mouse splenocytes with LPS, which is an inflammation-inducing antigen, and TGFβ and IL-23, which are inflammatory cytokines, and the secretion amounts of the inflammatory cytokines IL-17, IL-1β, and IFNγ were confirmed. The descriptions of IL-17, IL-1B, and IFNγ are the same as above.
(§2) Mouse splenocytes were dispensed into a 24-well plate at a concentration of 1×10^7 cells/well and cultured until the next day. The medium was replaced with serum-free medium, and after 4 hours, the cells were treated with LPS, TGFβ, and IL-23 and the peptide of the present invention and then cultured again for another 24 hours. In order to induce inflammation, the cells were treated with LPS at 2 μg/mL, TGFβ at 20 ng/ml, IL-23 at 20 ng/mL, and the peptide at 5 μM and 50 μM, respectively. The mouse splenocytes in the group in which inflammation was not induced due to untreatment with LPS, TGFβ, and IL-23 (NON); the negative control group in which the cells were treated with LPS, TGFβ, and IL-23 but not treated with the peptide (NC); and the group in which the cells were treated with LPS, TGFβ, and IL-23 along with the peptide of the present invention at the same concentration as above, respectively, were reacted as described above and the cell cultures were recovered. […]

IFNγ = IFNγ secretion by ELISA in mouse splenocytes induced with LPS, TGFβ and IL-23; conditions: LPS 2 μg/mL, TGFβ 20 ng/ml, IL-23 20 ng/mL, 24 hours
Excerpt: as §1, §2

IL-17 [2] = assay: IL-17 secretion by ELISA in TNFα-induced mouse splenocytes; conditions: TNFα 20 nM, 24 hours
Experimental: (§3) Inflammation was induced by treating mouse splenocytes with the inflammatory cytokine TNFα, and the secretion amounts of the inflammatory cytokines IL-17, IL-1B, and IFNγ were confirmed. IL-17 corresponds to a pro-inflammatory cytokine, and the descriptions of IL-1β and IFNγ are the same as above.
as §2, with “TNFα” for “LPS, TGFβ, and IL-23”, “TNFα” for “LPS at 2 μg/mL, TGFβ”, “nM,” for “ng/ml, IL-23 at 20 ng/mL,”

IL-17 [3] = assay: IL-17 secretion by ELISA in mouse splenocytes induced with LPS, TGFβ and IL-23; conditions: LPS 2 μg/mL, TGFβ 20 ng/ml, IL-23 20 ng/mL, 24 hours
Excerpt: as §1, §2

IL-1β [4] = assay: IL-1β secretion by ELISA in TNFα-induced mouse splenocytes; conditions: TNFα 20 nM, 24 hours
Experimental: as §3
as §2, with “TNFα” for “LPS, TGFβ, and IL-23”, “TNFα” for “LPS at 2 μg/mL, TGFβ”, “nM,” for “ng/ml, IL-23 at 20 ng/mL,”

Cox2 = Cox2 mRNA level by RT-PCR in TNFα-induced mouse splenocytes; conditions: TNFα 20 nM, peptide at 5 μM and 50 μM, 3 hours, compared to group not treated with the peptide
Experimental: In order to further confirm the anti-inflammatory effect of the peptide treatment of the present invention in addition to the results of Experimental Example <3-1>, inflammation was induced by treating mouse splenocytes with TNFα, and the expression levels of inflammatory cytokines TNFα and IL-1β, and Cox2, which is an inflammation-inducing marker, genes were confirmed. In order to induce inflammation, the cells were treated with cytokine TNFα, and since TNFα corresponds to a signaling protein associated with inflammation, IL-1β corresponds to a cytokine that promotes inflammation, and Cox2 is a protein associated with inflammation, the degree of inflammation can be confirmed by measuring the expression levels of TNFα, Cox2, and IL-1β genes.
Mouse splenocytes were dispensed into a 24-well plate at a concentration of 1× 10^7 cells/well and cultured until the next day. The medium was replaced with serum-free medium, and after 3 hours, the cells were treated with TNFα and the peptide of the present invention and then cultured for another 3 hours. In order to induce inflammation, the cells were treated with TNFα at 20 nM, and the peptide at 5 μM and 50 μM, respectively. […] After quantifying the amount of isolated RNA, cDNA was synthesized using a cDNA synthesis kit (Intron, Korea), PCR was performed using a PCR premix (Intron, Korea) and primers for TNFα, Cox2, and IL-1B. […]

TWNS [peptide of the present invention]
secretion amount of IL-1β (IL-1β [1]; peptide at 5 μM): decreased | secretion amount of IL-1β (IL-1β [1]; peptide at 50 μM): decreased | secretion amount of IFNγ (IFNγ; peptide at 5 μM): decreased | secretion amount of IFNγ (IFNγ; peptide at 50 μM): decreased | secretion amount of IL-17 (IL-17 [2]; peptide at 5 μM): slightly increased | secretion amount of IL-17 (IL-17 [2]; peptide at 50 μM): decreased | secretion amount of IL-17 (IL-17 [3]; peptide at 5 μM): slightly increased | secretion amount of IL-17 (IL-17 [3]; peptide at 50 μM): decreased | secretion amount of IL-1β (IL-1β [4]; peptide at 5 μM): decreased | secretion amount of IL-1β (IL-1β [4]; peptide at 50 μM): decreased | mRNA expression level of Cox2 (Cox2): decreased

— patent US20250340590A1, “PEPTIDE HAVING ANTI-INFLAMMATORY ACTIVITY AND USE THEREOF” (CAREGEN CO., LTD., priority 2021, published 2025)
